Measurements as given in publication PMC6107548, “Identification and characterization of aspartyl-tRNA synthetase inhibitors against Mycobacterium tuberculosis by an integrated whole-cell target-based approach” (Scientific Reports, 2018).
Values after ≈ are worked out from the molar mass of the structure shown. Where two headings read alike, the source gives them in different places.

Legend:
[1] = test system: M.tb H37Rv (intra); experiment: MIC against intracellular M.tb H37Rv; assay type: cell-based; details: Mycobacterium tuberculosis, Table S2
[2] = target: T1, Mt-AspRS (Mycobacterium tuberculosis, UniProt P9WFW3); experiment: tRNA-independent ATP release assay (coupled enzymes, NADPH fluorescence); assay type: biochemical; design: made in house; details: Table S2, 0.5 μM enzyme, 2 mM ADPCP, mean of two replicates
T1 sequence (P9WFW3 whole entry): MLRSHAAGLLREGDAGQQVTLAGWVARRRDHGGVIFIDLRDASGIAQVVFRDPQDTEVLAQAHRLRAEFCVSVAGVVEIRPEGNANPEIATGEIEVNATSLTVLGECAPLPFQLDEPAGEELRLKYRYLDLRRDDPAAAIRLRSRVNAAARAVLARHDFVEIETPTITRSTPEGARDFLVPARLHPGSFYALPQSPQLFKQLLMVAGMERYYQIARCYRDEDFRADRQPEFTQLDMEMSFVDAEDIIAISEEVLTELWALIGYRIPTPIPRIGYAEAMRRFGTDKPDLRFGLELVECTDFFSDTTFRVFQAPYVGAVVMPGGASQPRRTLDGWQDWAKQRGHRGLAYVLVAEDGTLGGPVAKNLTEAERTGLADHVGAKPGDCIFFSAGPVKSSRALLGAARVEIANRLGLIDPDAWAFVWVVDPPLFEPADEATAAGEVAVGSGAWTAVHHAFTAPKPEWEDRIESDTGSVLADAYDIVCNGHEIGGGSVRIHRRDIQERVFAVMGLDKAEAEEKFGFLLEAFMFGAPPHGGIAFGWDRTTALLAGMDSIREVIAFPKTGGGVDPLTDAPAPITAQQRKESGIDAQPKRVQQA

[3] = test system: M.tuberculosis H37Rv; experiment: MIC against M. tuberculosis H37Rv (extracellular); assay type: cell-based; details: Mycobacterium tuberculosis
[4] = test system: HepG2; experiment: HepG2 cytotoxicity; assay type: cell-based; details: Homo sapiens, Table S2
[5] = test system: M.bovis BCG pMV261::Mt-AspRS; experiment: microbe, parasite or virus in culture; assay type: cell-based, Mycobacterium bovis BCG; details: for MIC: Mycobacterium tuberculosis variant bovis BCG, BCG
[6] = test system: M.bovis BCG empty pMV261; experiment: microbe, parasite or virus in culture; assay type: cell-based; details: Mycobacterium tuberculosis variant bovis BCG
[7] = target: T1, Mt-AspRS; experiment: Mechanistic characterization, competition with ADPCP in tRNA-independent reaction; assay type: biochemical; design: made in house; details: ADPCP 0-4000 μM; inhibitor 50 and 100 μM
[8] = target: T1, Mt-AspRS; experiment: biochemical
[9] = test system: N[C@@H](CC(=O)O)C(=O)O; experiment: purified protein, by the assay type; details: pH 7.7; 37.0 °C
[10] = Table S2, extracellular, read-out: MIC M.tb H37Rv (extra)
[11] = read-out: MIC M. bovis BCG pMV261::AspRS
[12] = read-out: MIC M.bovis BCG pMV261::Mt-AspRS
[13] = read-out: MIC M. bovis empty pMV261 BCG
[14] = read-out: MIC M.bovis BCG empty pMV261
[15] = Table S1, read-out: MIC M.tuberculosis H37Rv

Work on `Nc1ccc(/C=C/C(=O)N2CCC(COc3cccnc3)CC2)cn1` [GSK92A] yielded an MIC [1] greater than 50.1 µM, an IC50 [2] of 21.3 µM and an MIC [3, 10] greater than 80 µM. For the same compound, the IC50 [4] was greater than 100 µM.
Compound `N#Cc1ccc(COc2ccc3c(c2)CCN(C(=O)/C=C/c2ccc(Nc4ccc(F)cn4)cc2)C3)cc1` [GSK85A] has an MIC [1] greater than 50.1 µM, an IC50 [2] of 3.37 µM and an MIC [3, 10] of 2.5 µM (≈ 1.26 µg/mL). For the same compound, the IC50 [4] was 25.1 µM.
`O=C(O)c1ccc(Nc2nc(-c3cccs3)cs2)cc1O` [GSK93A] was tested, and the “Ratio (MIC shift)” value [5] was 4.3, the MIC [5, 11] was 1.7 µM (≈ 0.541 µg/mL) and the MIC [5, 12] was 1.7 µM (≈ 0.541 µg/mL). The MIC [1] was greater than 50.1 µM, the MIC [6, 13] was 0.4 µM (≈ 0.127 µg/mL) and the MIC [6, 14] was 0.4 µM (≈ 0.127 µg/mL). The “mode of inhibition with regard to ADPCP” value [7] was “Reversible and non-competitive”, the MIC [3, 15] was 31.2 µM (≈ 9.95 µg/mL) and the MIC [3, 10] was 31.2 µM (≈ 9.95 µg/mL). For the same compound, the IC50 [4] was greater than 100 µM and the IC50 [8] was 35.6 µM.
For `O=C1OC2(CCC(CNc3ccc(-c4cc(F)cc(F)c4)nn3)CC2)CN1c1cccnn1` (stereo not shown) [GSK97C], the “Ratio (MIC shift)” value [5] was 2.4, the MIC [5, 11] was 24.9 µM (≈ 11.3 µg/mL) and the MIC [5, 12] was 24.9 µM (≈ 11.3 µg/mL). It also gave an MIC [1] of 3.16 µM (≈ 1.43 µg/mL), an MIC [6, 13] of 10.5 µM (≈ 4.75 µg/mL) and an MIC [6, 14] of 10.5 µM (≈ 4.75 µg/mL). The “mode of inhibition with regard to ADPCP” value [7] was “Reversible and non-competitive”, the MIC [3, 15] was 20 µM (≈ 9.05 µg/mL) and the MIC [3, 10] was 20 µM (≈ 9.05 µg/mL). For the same compound, the IC50 [4] was 40 µM and the IC50 [8] was 1.12 µM.
With “Mt-AspRS (Mycobacterium tuberculosis H37Rv)” the Km [9] was 13.8 ± 9.6 µM.
